From patent US20260242419A1, “A CYCLIC PEPTIDE FOR TRAPPING INTERLEUKIN-1 BETA” (Merck Sharp & Dohme LLC, priority 2023, published 2026)
Non-standard residues stand in square brackets, D forms with d. Residues, ends and D or L forms follow the SMILES beside them. Phe(4-(5-CO2H-2-pyrimidyl)) = N[C@@H](Cc1ccc(-c2ncc(C(=O)O)cn2)cc1)C(=O)O; Phe(4-(4-Ac-piperazinyl)) = CC(=O)N1CCN(c2ccc(C[C@H](N)C(=O)O)cc2)CC1; dPro(4R-(4-pyridylmethyl)) = O=C(O)[C@H]1C[C@@H](Cc2ccncc2)CN1; Trp(βS-Me,4-F) = C[C@@H](c1c[nH]c2cccc(F)c12)[C@H](N)C(=O)O; Bip(4'-COOH) = N[C@@H](Cc1ccc(-c2ccc(C(=O)O)cc2)cc1)C(=O)O; Ala(1-bicyclo(1.1.1)pentyl) = N[C@@H](CC12CC(C1)C2)C(=O)O; dPro(4R-Bzl(4-F)) = O=C(O)[C@H]1C[C@@H](Cc2ccc(F)cc2)CN1; Ala(pyrimidin-5-yl) = N[C@@H](Cc1cncnc1)C(=O)O; Phe(4-COOH) = N[C@@H](Cc1ccc(C(=O)O)cc1)C(=O)O; Pro(cis-4-F) = O=C(O)[C@@H]1C[C@H](F)CN1; Ala(4-THP) = N[C@@H](CC1CCOCC1)C(=O)O; cisHyp = O=C(O)[C@@H]1C[C@H](O)CN1; 4Pal = N[C@@H](Cc1ccncc1)C(=O)O; αMeD = C[C@](N)(CC(=O)O)C(=O)O; d(αMeS) = C[C@@](N)(CO)C(=O)O; Dab = NCC[C@H](N)C(=O)O; Aib = CC(C)(N)C(=O)O

target: T1, IL-1β (Homo sapiens, UniProt P01584); assay: IL-6 assay in MRC5 cells: inhibition of IL-1β induced IL-6 secretion (AlphaLISA); assay type: cell-based; conditions: inhibition of IL-1β induced IL-6 secretion in MRC5 cells; read-out: MRC5 IC50
T1 construct: purchased BioLegend 579404
T1 sequence (P01584 117-269): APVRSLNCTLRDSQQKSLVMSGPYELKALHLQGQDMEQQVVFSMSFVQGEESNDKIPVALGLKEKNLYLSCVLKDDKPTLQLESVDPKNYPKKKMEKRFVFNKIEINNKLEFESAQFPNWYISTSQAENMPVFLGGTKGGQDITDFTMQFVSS
Outline: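 Compound was pre-incubated 1 h at ambient temperature with recombinant human IL-1β at 2λ EC80 before adding human lung fibroblast MRC5 cells (3000/well) in EMEM with 0.025% BSA. After overnight culture at 37 °C, 5% CO2, secreted IL-6 in conditioned medium was measured by AlphaLISA; IC50 from 4-parameter logistic fits.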

| IC50 | SMILES |
| --- | --- |
| 0.016 nM | C[C@@H](c1c[nH]c2cccc(F)c12)[C@@H]1NC(=O)[C@@H]2C[C@H](F)CN2C(=O)CNC(=O)[C@H](Cc2ccc(C(=O)O)cc2)NC(=O)[C@H](Cc2ccncc2)NC(=O)[C@H](Cc2ccc(-c3ccc(C(=O)O)cc3)cc2)NC(=O)[C@H]2C[C@@H](Cc3ccncc3)CN2C(=O)CNC(=O)[C@H](CO)NC(=O)[C@H](CCC(N)=O)NC(=O)[C@H](CC2CCOCC2)NC(=O)[C@](C)(CC(=O)O)NC(=O)[C@H](Cc2c[nH]c3ccccc23)NC(=O)[C@H](CO)NC(=O)C(C)(C)NC1=O [Example 189] (cyclo([Bip(4'-COOH)][4Pal][Phe(4-COOH)]G[Pro(cis-4-F)][Trp(βS-Me,4-F)][Aib]SW[αMeD][Ala(4-THP)]QSG[dPro(4R-(4-pyridylmethyl))])) |
| 0.019 nM | C[C@@H](c1c[nH]c2cccc(F)c12)[C@@H]1NC(=O)[C@@H]2C[C@H](O)CN2C(=O)CNC(=O)[C@H](Cc2ccc(C(=O)O)cc2)NC(=O)[C@H](CC23CC(C2)C3)NC(=O)[C@H](Cc2ccc(-c3ccc(C(=O)O)cc3)cc2)NC(=O)[C@H]2C[C@@H](Cc3ccncc3)CN2C(=O)CNC(=O)[C@H](CCN)NC(=O)[C@H](CCC(N)=O)NC(=O)[C@H](Cc2cncnc2)NC(=O)[C@@](C)(CO)NC(=O)[C@H](Cc2c[nH]c3ccccc23)NC(=O)[C@H](CO)NC(=O)C(C)(C)NC1=O [Example 190] (cyclo([Bip(4'-COOH)][Ala(1-bicyclo(1.1.1)pentyl)][Phe(4-COOH)]G[cisHyp][Trp(βS-Me,4-F)][Aib]SW[d(αMeS)][Ala(pyrimidin-5-yl)]Q[Dab]G[dPro(4R-(4-pyridylmethyl))])) |
| 0.021 nM | C[C@@H](c1c[nH]c2cccc(F)c12)[C@@H]1NC(=O)[C@@H]2C[C@H](O)CN2C(=O)CNC(=O)[C@H](Cc2ccc(C(=O)O)cc2)NC(=O)[C@H](CC23CC(C2)C3)NC(=O)[C@H](Cc2ccc(-c3ccc(C(=O)O)cc3)cc2)NC(=O)[C@H]2C[C@@H](Cc3ccncc3)CN2C(=O)CNC(=O)[C@H](CCN)NC(=O)[C@H](CCC(N)=O)NC(=O)[C@H](CC2CCOCC2)NC(=O)[C@](C)(CC(=O)O)NC(=O)[C@H](Cc2c[nH]c3ccccc23)NC(=O)[C@H](CO)NC(=O)C(C)(C)NC1=O [Example 191] (cyclo([Bip(4'-COOH)][Ala(1-bicyclo(1.1.1)pentyl)][Phe(4-COOH)]G[cisHyp][Trp(βS-Me,4-F)][Aib]SW[αMeD][Ala(4-THP)]Q[Dab]G[dPro(4R-(4-pyridylmethyl))])) |
| 0.021 nM | C[C@@H](c1c[nH]c2cccc(F)c12)[C@@H]1NC(=O)[C@@H]2C[C@H](O)CN2C(=O)CNC(=O)[C@H](Cc2ccc(C(=O)O)cc2)NC(=O)[C@H](CC23CC(C2)C3)NC(=O)[C@H](Cc2ccc(-c3ccc(C(=O)O)cc3)cc2)NC(=O)[C@H]2C[C@@H](Cc3ccncc3)CN2C(=O)CNC(=O)[C@H](CCN)NC(=O)[C@H](CCC(N)=O)NC(=O)[C@H](CC2CCOCC2)NC(=O)[C@@](C)(CO)NC(=O)[C@H](Cc2c[nH]c3ccccc23)NC(=O)[C@H](CO)NC(=O)C(C)(C)NC1=O [Example 192] (cyclo([Bip(4'-COOH)][Ala(1-bicyclo(1.1.1)pentyl)][Phe(4-COOH)]G[cisHyp][Trp(βS-Me,4-F)][Aib]SW[d(αMeS)][Ala(4-THP)]Q[Dab]G[dPro(4R-(4-pyridylmethyl))])) |
| 0.011 nM | C[C@@H](c1c[nH]c2cccc(F)c12)[C@@H]1NC(=O)[C@@H]2C[C@H](F)CN2C(=O)CNC(=O)[C@H](Cc2ccc(C(=O)O)cc2)NC(=O)[C@H](CC23CC(C2)C3)NC(=O)[C@H](Cc2ccc(-c3ccc(C(=O)O)cc3)cc2)NC(=O)[C@H]2C[C@@H](Cc3ccncc3)CN2C(=O)CNC(=O)[C@H](CCN)NC(=O)[C@H](CCC(N)=O)NC(=O)[C@H](CC2CCOCC2)NC(=O)[C@](C)(CC(=O)O)NC(=O)[C@H](Cc2c[nH]c3ccccc23)NC(=O)[C@H](CO)NC(=O)C(C)(C)NC1=O [Example 193] (cyclo([Bip(4'-COOH)][Ala(1-bicyclo(1.1.1)pentyl)][Phe(4-COOH)]G[Pro(cis-4-F)][Trp(βS-Me,4-F)][Aib]SW[αMeD][Ala(4-THP)]Q[Dab]G[dPro(4R-(4-pyridylmethyl))])) |
| 0.014 nM | C[C@@H](c1c[nH]c2cccc(F)c12)[C@@H]1NC(=O)[C@@H]2C[C@H](O)CN2C(=O)CNC(=O)[C@H](Cc2ccc(C(=O)O)cc2)NC(=O)[C@H](Cc2ccncc2)NC(=O)[C@H](Cc2ccc(-c3ccc(C(=O)O)cc3)cc2)NC(=O)[C@H]2C[C@@H](Cc3ccncc3)CN2C(=O)CNC(=O)[C@H](CCN)NC(=O)[C@H](CCC(N)=O)NC(=O)[C@H](Cc2cncnc2)NC(=O)C(C)(C)NC(=O)[C@H](Cc2c[nH]c3ccccc23)NC(=O)[C@H](CO)NC(=O)C(C)(C)NC1=O [Example 194] (cyclo([Bip(4'-COOH)][4Pal][Phe(4-COOH)]G[cisHyp][Trp(βS-Me,4-F)][Aib]SW[Aib][Ala(pyrimidin-5-yl)]Q[Dab]G[dPro(4R-(4-pyridylmethyl))])) |
| 0.013 nM | C[C@@H](c1c[nH]c2cccc(F)c12)[C@@H]1NC(=O)[C@@H]2C[C@H](O)CN2C(=O)CNC(=O)[C@H](Cc2ccc(C(=O)O)cc2)NC(=O)[C@H](Cc2ccncc2)NC(=O)[C@H](Cc2ccc(-c3ccc(C(=O)O)cc3)cc2)NC(=O)[C@H]2C[C@@H](Cc3ccncc3)CN2C(=O)CNC(=O)[C@H](CCN)NC(=O)[C@H](CCC(N)=O)NC(=O)[C@H](Cc2cncnc2)NC(=O)[C@@](C)(CO)NC(=O)[C@H](Cc2c[nH]c3ccccc23)NC(=O)[C@H](CO)NC(=O)C(C)(C)NC1=O [Example 195] (cyclo([Bip(4'-COOH)][4Pal][Phe(4-COOH)]G[cisHyp][Trp(βS-Me,4-F)][Aib]SW[d(αMeS)][Ala(pyrimidin-5-yl)]Q[Dab]G[dPro(4R-(4-pyridylmethyl))])) |
| 0.038 nM | CC(=O)N1CCN(c2ccc(C[C@@H]3NC(=O)[C@H]4C[C@@H](Cc5ccc(F)cc5)CN4C(=O)CNC(=O)[C@H](CCN)NC(=O)[C@H](CCC(N)=O)NC(=O)[C@H](Cc4cncnc4)NC(=O)C(C)(C)NC(=O)[C@H](Cc4c[nH]c5ccccc45)NC(=O)[C@H](CO)NC(=O)C(C)(C)NC(=O)[C@H]([C@@H](C)c4c[nH]c5cccc(F)c45)NC(=O)[C@@H]4C[C@H](O)CN4C(=O)CNC(=O)[C@H](Cc4ccc(C(=O)O)cc4)NC(=O)[C@H](Cc4ccncc4)NC3=O)cc2)CC1 [Example 196] (cyclo([Phe(4-(4-Ac-piperazinyl))][4Pal][Phe(4-COOH)]G[cisHyp][Trp(βS-Me,4-F)][Aib]SW[Aib][Ala(pyrimidin-5-yl)]Q[Dab]G[dPro(4R-Bzl(4-F))])) |
| 0.036 nM | C[C@@H](c1c[nH]c2cccc(F)c12)[C@@H]1NC(=O)[C@@H]2C[C@H](O)CN2C(=O)CNC(=O)[C@H](Cc2ccc(C(=O)O)cc2)NC(=O)[C@H](Cc2ccncc2)NC(=O)[C@H](Cc2ccc(-c3ncc(C(=O)O)cn3)cc2)NC(=O)[C@H]2C[C@@H](Cc3ccncc3)CN2C(=O)CNC(=O)[C@H](CCN)NC(=O)[C@H](CCC(N)=O)NC(=O)[C@H](Cc2cncnc2)NC(=O)C(C)(C)NC(=O)[C@H](Cc2c[nH]c3ccccc23)NC(=O)[C@H](CO)NC(=O)C(C)(C)NC1=O [Example 197] (cyclo([Phe(4-(5-CO2H-2-pyrimidyl))][4Pal][Phe(4-COOH)]G[cisHyp][Trp(βS-Me,4-F)][Aib]SW[Aib][Ala(pyrimidin-5-yl)]Q[Dab]G[dPro(4R-(4-pyridylmethyl))])) |
| 0.024 nM | C[C@@H](c1c[nH]c2cccc(F)c12)[C@@H]1NC(=O)[C@@H]2C[C@H](F)CN2C(=O)CNC(=O)[C@H](Cc2ccc(C(=O)O)cc2)NC(=O)[C@H](CC23CC(C2)C3)NC(=O)[C@H](Cc2ccc(-c3ncc(C(=O)O)cn3)cc2)NC(=O)[C@H]2C[C@@H](Cc3ccncc3)CN2C(=O)CNC(=O)[C@H](CCN)NC(=O)[C@H](CCC(N)=O)NC(=O)[C@H](Cc2cncnc2)NC(=O)C(C)(C)NC(=O)[C@H](Cc2c[nH]c3ccccc23)NC(=O)[C@H](CO)NC(=O)C(C)(C)NC1=O [Example 198] (cyclo([Phe(4-(5-CO2H-2-pyrimidyl))][Ala(1-bicyclo(1.1.1)pentyl)][Phe(4-COOH)]G[Pro(cis-4-F)][Trp(βS-Me,4-F)][Aib]SW[Aib][Ala(pyrimidin-5-yl)]Q[Dab]G[dPro(4R-(4-pyridylmethyl))])) |
| 0.032 nM | C[C@@H](c1c[nH]c2cccc(F)c12)[C@@H]1NC(=O)[C@@H]2C[C@H](O)CN2C(=O)CNC(=O)[C@H](Cc2ccc(C(=O)O)cc2)NC(=O)[C@H](Cc2ccncc2)NC(=O)[C@H](Cc2ccc(-c3ccc(C(=O)O)cc3)cc2)NC(=O)[C@H]2C[C@@H](Cc3ccncc3)CN2C(=O)CNC(=O)[C@H](CO)NC(=O)[C@H](CCC(N)=O)NC(=O)[C@H](CC2CCOCC2)NC(=O)[C@](C)(CC(=O)O)NC(=O)[C@H](Cc2c[nH]c3ccccc23)NC(=O)[C@H](CO)NC(=O)C(C)(C)NC1=O [Example 199] (cyclo([Bip(4'-COOH)][4Pal][Phe(4-COOH)]G[cisHyp][Trp(βS-Me,4-F)][Aib]SW[αMeD][Ala(4-THP)]QSG[dPro(4R-(4-pyridylmethyl))])) |
| 0.014 nM | C[C@@H](c1c[nH]c2cccc(F)c12)[C@@H]1NC(=O)[C@@H]2C[C@H](F)CN2C(=O)CNC(=O)[C@H](Cc2ccc(C(=O)O)cc2)NC(=O)[C@H](Cc2ccncc2)NC(=O)[C@H](Cc2ccc(-c3ccc(C(=O)O)cc3)cc2)NC(=O)[C@H]2C[C@@H](Cc3ccncc3)CN2C(=O)CNC(=O)[C@H](CCN)NC(=O)[C@H](CCC(N)=O)NC(=O)[C@H](CC2CCOCC2)NC(=O)[C@](C)(CC(=O)O)NC(=O)[C@H](Cc2c[nH]c3ccccc23)NC(=O)[C@H](CO)NC(=O)C(C)(C)NC1=O [Example 200] (cyclo([Bip(4'-COOH)][4Pal][Phe(4-COOH)]G[Pro(cis-4-F)][Trp(βS-Me,4-F)][Aib]SW[αMeD][Ala(4-THP)]Q[Dab]G[dPro(4R-(4-pyridylmethyl))])) |
